How the values were obtained:
[1] = test system: glutathione (GSH) in liver; experiment: In vivo reduced glutathione (GSH) level in liver homogenate; design: species or system male Wistar albino rats; conditions: rat liver, 100 mg/kg orally for 3 days; for GSH: mean ± SEM, n = 6
Procedure: (§1) The complete progress of the experiment was conducted using male Wistar albino rats (200–250 g), delivered by the Institutional Breeding House, Egypt, reared and maintained in the animal house of the institution. The animals had free access to food and water ad libitum and maintained in a controlled environment under standard conditions of temperature and humidity with an alternating 12 h light and dark cycle for about a week for acclimatization. The protocol of the study was approved by the Animal Ethics Committee of the Faculty of Pharmacy, Helwan University (ethical code number: 05A2019; date: October 2019). The study was conducted in accordance with the EC, directive 86/609/EEC for animal experiments.
(§2) Rats are weighed at the beginning and at the end of experiment. Fifty-four male albino rats (n=6) were divided into nine different groups. Group I served as a control group and treated with the same volume vehicle only. Group II treated with 100 mg/kg of Ascorbic acid as standard antioxidant drug. Groups (III–IX) orally administered 100 mg/kg of compounds 3a, 4e, 5b, 5c, 6a, 6c, 6e, respectively, for 3 days. The animals were sacrificed by cervical dislocation 24 h after the last dose. Sacrificing is carried out at the same time of the day, to avoid the circadian variation in the level of tissue GSH[53]. Each liver was excised, weighed, rinsed in ice-cold normal saline and frozen for not more than 72 h await analysis of endogenous antioxidant status (GSH levels and CAT activity) and lipid peroxide concentrations. For performing biochemical assays, a 10% liver homogenate in 10 mM phosphate buffer was prepared using tissue homogeniser (Glas-Col®, Cat no.099C K6424, TERRE HAUTE, USA).
Levels of glutathione (GSH) in liver homogenates were assayed by the deproteinization of tissue homogenate. Then […] supernatant was mixed with di-potassium hydrogen phosphate buffer (pH 8) and 0.4% 5,5′-dithiobis-2-nitrobenzoic acid (Ellman’s reagent). The yellow-coloured substance formed was measured at 412 nm. The results were expressed as GSH mg/g tissue.

[2] = DPPH radical scavenging assay; conditions: mean ± SEM of three experiments; 30 min, 517 nm
Procedure: The DPPH scavenging activity of all synthesized compounds was measured as previously described by Nahar et al.[48] with some modifications. Briefly, 100 µL of different concentrations of the tested compounds (12.5, 25, 50, 100, and 200 µg/mL) were pipetted into a 96-well plate. Then, 100 µL of 100-µM DPPH methanolic solution were added to each well and the plate was incubated protected from light at room temperature for 30 min. The absorbance of the solution was measured at λ517 nm.[49] Ascorbic acid was used as the positive control while DMSO was the negative control. The percentage of DPPH scavenging activity was calculated according to the following equation: % of DPPH scavenging=[(Acontrol–Asample)/Acontrol] ×100, where Acontrol is the absorbance of the control reaction (with all reagents except the test compound), and Asample is the absorbance of the test sample. […] All tests were performed in triplicates.

[3] = test system: lipid peroxidation (MDA) in liver; experiment: In vivo lipid peroxide level (TBARS/MDA) in liver homogenate; design: species or system male Wistar albino rats; conditions: rat liver; 100 mg/kg orally for 3 days; mean ± SEM, n = 6
Procedure: as §1, §2
Lipid peroxidation level in the liver homogenates was determined as thiobarbituric acid reactive substances (TBARS) by measuring malondialdehyde ‘MDA’ level according to Mihara and Uchiyama[56]. Briefly, 0.5 mL supernatant of tissue homogenate was mixed with 0.6% thiobarbituric acid (TBA) and 1% orthophosphoric acid solution, and heated in a boiling water bath for 45 min. The pink-coloured chromogen formed by the reaction of TBA with MDA was extracted by n-butanol and measured at 535 nm. The results were expressed as nmol/g tissue.

[4] = Superoxide scavenging assay (pyrogallol autoxidation); conditions: for Superoxide scavenging potency relative to ascorbic acid: folds of ascorbic acid; for Superoxide IC50: mean ± SEM of three experiments, pyrogallol autoxidation, 325 nm
Procedure: The improved pyrogallol autoxidation method was used to determine O2^−. RSA of all synthesized compounds as previously described. Briefly, 50 µL of test compounds (12.5, 25, 50,100, and 200 µg/mL) was added to 2900 µl of […] Tris HCl buffer (0.05 M, pH 7.4) containing 1-mM Na2EDTA. Next, 50 µL of 60-mM pyrogallol in1mM HCl had been thoroughly mixed with the mixture. The absorbance of the reaction mixture was measured at A325 nm every 30 s for 5 min. O2^− RSA was expressed by the oxidation degree of a test group in comparison to that of the control. The absorbance at 325 nm was measured against the Tris-HCl buffer every 30 s for 5 min. The percentage of scavenging effect was calculated using the following equation: O2^− radical scavenging %=[(ΔA325, control/T)−(ΔA325nm, sample/T)/ΔA325nm, control/T]×100 where ΔA325 nm, control is the increase in A325 nm of the reaction mixture without the sample and ΔA325 nm, sample is that for the mixture with the sample; T=5 min. The experiments were performed in triplicate.

Compound	GSH [1] [mg/g tissue]	DPPH IC50 [2] [µg/mL]	TBARS [3] [nmol/g tissue]	Superoxide scavenging potency relative to ascorbic acid [4] [folds]	Superoxide IC50 [4] [µg/mL]	Increase in GSH compared to control group [1]
c1ccc(C2=NNC(c3cn(-c4ccccc4)nc3-c3ccc4ccccc4c3)C2)cc1 (stereo not drawn) [Compound 3a, 3′-Naphthalen-2-yl-5,1′-diphenyl-3,4-dihydro-2H,1’H-[3,4′]bipyrazole]	7.00 ± 0.27	13.99 ± 0.78	0.350 ± 0.05	2.5	50.42 ± 1.45	–
Clc1ccc(C2=NN(c3ccccc3)C(c3cn(-c4ccccc4)nc3-c3ccc4ccccc4c3)C2)cc1Cl (stereo not drawn) [Compound 4e, 5-(3,4-Dichlorophenyl)-3′-naphthalen-2-yl-2,1′-diphenyl-3,4-dihydro-2H,1’H-[3,4′]-bipyrazole]	7.05 ± 0.56	19.56 ± 1.06	0.402 ± 0.04	–	130.19 ± 1.1	–
COc1ccc(C2=NOC(c3cn(-c4ccccc4)nc3-c3ccc4ccccc4c3)C2)cc1 (stereo not drawn) [Compound 5b, 3-(4-Methoxyphenyl)-5-(3-naphthalen-2-yl-1-phenyl-1H-pyrazol-4-yl)-4,5-dihydro isoxazole]	10.71 ± 0.86	46.62 ± 1.63	0.330 ± 0.02	–	101.8 ± 1.39	about 52%
Cc1ccc(C2=NOC(c3cn(-c4ccccc4)nc3-c3ccc4ccccc4c3)C2)cc1 (stereo not drawn) [Compound 5c, 5-(3-Naphthalen-2-yl-1-phenyl-1H-pyrazol-4-yl)-3-p-tolyl-4,5-dihydroisoxazole]	10.92 ± 0.96	47.27 ± 1.13	0.346 ± 0.01	2.8	44.54 ± 1.44	~55%
NC(=S)N1N=C(c2ccccc2)CC1c1cn(-c2ccccc2)nc1-c1ccc2ccccc2c1 (stereo not drawn) [Compound 6a, 3′-Naphthalen-2-yl-5,1′-diphenyl-3,4-dihydro-1’H-[3,4′]bipyrazolyl-2-carbothioic acid amide]	7.07 ± 0.35	20.47 ± 1.43	0.348 ± 0.03	–	127.25 ± 1.47	–
Cc1ccc(C2=NN(C(N)=S)C(c3cn(-c4ccccc4)nc3-c3ccc4ccccc4c3)C2)cc1 (stereo not drawn) [Compound 6c, 3′-Naphthalen-2-yl-1′-phenyl-5-p-tolyl-3,4-dihydro-1’H-[3,4′]bipyrazolyl-2-carbo thioic acid amide]	9.01 ± 0.72	18.98 ± 1.73	0.428 ± 0.02	–	140.17 ± 1.52	–
NC(=S)N1N=C(c2ccc(Cl)c(Cl)c2)CC1c1cn(-c2ccccc2)nc1-c1ccc2ccccc2c1 (stereo not drawn) [Compound 6e]	10.65 ± 0.97	9.66 ± 0.34	0.344 ± 0.05	–	87.31 ± 1.58	~51%

— publication PMC7170299, “Design, synthesis, molecular modelling and biological evaluation of novel 3-(2-naphthyl)-1-phenyl-1H-pyrazole derivatives as potent antioxidants and 15-Lipoxygenase inhibitors” (Journal of Enzyme Inhibition and Medicinal Chemistry, 2020)
